Data set [1] in a line: Half life in C57BL/6 mouse at 5 mg/kg, iv measured upto 360 mins by HPLC analysis. In kind it is ADME, organism-based. The note with it: in vivo.
The nature of data set [2]: Apparent volume of distribution in C57BL/6 mouse at 5 mg/kg, iv measured upto 360 mins by HPLC analysis. It is filed as ADME, organism-based. The note with it: in vivo, 6 h.
Data set [3] in a line: Clearance in C57BL/6 mouse at 5 mg/kg, iv measured upto 360 mins by HPLC analysis. The settings on record: in vivo. In kind it is ADME, organism-based.
Data set [4] has as its target 3',5'-cyclic-AMP phosphodiesterase 4B (Homo sapiens) (UniProt Q07343). In words: Inhibition of human recombinant PDE4B1 at 10 uM using […] as substrate preincubated with compound for 15 mins followed by substrate addition and measured after 30 mins by spectrofluorimetric analysis relative to control. The note with it: time 45.0 min.
In data set [5] the test system is Neutrophil. In words: Inhibition of fMLF/CB-induced human Neutrophil activation assessed as reduction in superoxide anion generation at 10 uM preincubated with compound for 2 mins prior to CB induction for 3 mins followed by fMLF addition by spectrophotometric analysis relative to control. It is filed as functional. The settings on record: 5 min.
The test system of data set [6] is Neutrophil. In words: Inhibition of fMLF/CB-induced human Neutrophil activation assessed as reduction in superoxide anion generation at 1 to 1000 nM preincubated with compound for 2 mins prior to CB induction for 3 mins followed by fMLF addition in presence of KT5720 by spectrophotometric analysis. It is filed as functional, cell-based. The settings on record: dose 1-1000 nM, time 5.0 min.

For data set [7], the system named is Neutrophil. In words: Inhibition of fMLF/CB-induced human Neutrophil activation assessed as reduction in superoxide anion generation preincubated with compound for 2 mins prior to CB induction for 3 mins followed by fMLF addition by spectrophotometric analysis. It is filed as functional, cell-based.
Data set [8] has as its system Neutrophil. Put plainly: Inhibition of fMLF/CB-induced human Neutrophil activation assessed as reduction in elastase release using MeO-Suc-Ala-Ala-Pro-Val-pnitroanilide as substrate incubated for 5 mins. In kind it is functional, cell-based.
For data set [9], the system named is Neutrophil. Put plainly: Inhibition of fMLF/CB-induced human Neutrophil activation assessed as reduction in elastase release at 10 uM using MeO-Suc-Ala-Ala-Pro-Val-pnitroanilide as substrate incubated for 5 mins relative to control. It is filed as functional.
In data set [10] the target is 3',5'-cyclic-AMP phosphodiesterase 4D (Homo sapiens) (UniProt Q08499). Put plainly: Inhibition of human recombinant PDE4D2 at 10 uM using […] as substrate preincubated with compound for 15 mins followed by substrate addition and measured after 30 mins by spectrofluorimetric analysis relative to control. The settings on record: time 45.0 min.
A short description of data set [11]: AUC (0 to infinity) in C57BL/6 mouse at 5 mg/kg, iv measured upto 360 mins by HPLC analysis. The settings on record: in vivo. In kind it is ADME, organism-based.
The target of data set [12] is Phosphodiesterase 4 (Homo sapiens) (UniProt P27815+Q08499+Q07343+Q08493). Put plainly: Inhibition of PDE4 (unknown origin) at 50 uM incubated for 1 hr by scintillation proximity assay relative to control. It is filed as protein assay. A general note: Scintillation proximity formats need no separation of bound from free tracer.

Activity calls are given as the source filed them. No cut-off for these calls is given here. A value given as a limit tells only on which side of the number the result lay.

Sequence of 3',5'-cyclic-AMP phosphodiesterase 4B (Homo sapiens) (Q07343 whole entry): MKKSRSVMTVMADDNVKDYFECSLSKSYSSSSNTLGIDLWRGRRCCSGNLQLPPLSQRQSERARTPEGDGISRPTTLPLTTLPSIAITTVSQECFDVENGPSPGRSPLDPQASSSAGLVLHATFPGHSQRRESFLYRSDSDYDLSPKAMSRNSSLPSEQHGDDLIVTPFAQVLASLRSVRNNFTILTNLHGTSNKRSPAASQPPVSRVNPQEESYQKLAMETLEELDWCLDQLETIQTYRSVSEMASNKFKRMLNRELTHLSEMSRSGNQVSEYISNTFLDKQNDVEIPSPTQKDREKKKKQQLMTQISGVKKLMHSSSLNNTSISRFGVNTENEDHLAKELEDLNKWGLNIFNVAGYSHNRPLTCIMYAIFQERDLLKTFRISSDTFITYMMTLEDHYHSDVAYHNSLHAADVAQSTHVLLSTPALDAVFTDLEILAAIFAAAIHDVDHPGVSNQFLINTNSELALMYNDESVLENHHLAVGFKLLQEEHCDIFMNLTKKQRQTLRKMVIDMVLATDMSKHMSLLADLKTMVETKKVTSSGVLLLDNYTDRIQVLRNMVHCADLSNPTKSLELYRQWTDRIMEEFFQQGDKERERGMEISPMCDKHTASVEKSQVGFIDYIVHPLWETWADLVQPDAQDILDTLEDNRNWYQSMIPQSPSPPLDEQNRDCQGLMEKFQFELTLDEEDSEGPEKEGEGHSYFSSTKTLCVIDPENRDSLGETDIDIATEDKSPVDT
Sequence of 3',5'-cyclic-AMP phosphodiesterase 4D (Homo sapiens) (Q08499 whole entry): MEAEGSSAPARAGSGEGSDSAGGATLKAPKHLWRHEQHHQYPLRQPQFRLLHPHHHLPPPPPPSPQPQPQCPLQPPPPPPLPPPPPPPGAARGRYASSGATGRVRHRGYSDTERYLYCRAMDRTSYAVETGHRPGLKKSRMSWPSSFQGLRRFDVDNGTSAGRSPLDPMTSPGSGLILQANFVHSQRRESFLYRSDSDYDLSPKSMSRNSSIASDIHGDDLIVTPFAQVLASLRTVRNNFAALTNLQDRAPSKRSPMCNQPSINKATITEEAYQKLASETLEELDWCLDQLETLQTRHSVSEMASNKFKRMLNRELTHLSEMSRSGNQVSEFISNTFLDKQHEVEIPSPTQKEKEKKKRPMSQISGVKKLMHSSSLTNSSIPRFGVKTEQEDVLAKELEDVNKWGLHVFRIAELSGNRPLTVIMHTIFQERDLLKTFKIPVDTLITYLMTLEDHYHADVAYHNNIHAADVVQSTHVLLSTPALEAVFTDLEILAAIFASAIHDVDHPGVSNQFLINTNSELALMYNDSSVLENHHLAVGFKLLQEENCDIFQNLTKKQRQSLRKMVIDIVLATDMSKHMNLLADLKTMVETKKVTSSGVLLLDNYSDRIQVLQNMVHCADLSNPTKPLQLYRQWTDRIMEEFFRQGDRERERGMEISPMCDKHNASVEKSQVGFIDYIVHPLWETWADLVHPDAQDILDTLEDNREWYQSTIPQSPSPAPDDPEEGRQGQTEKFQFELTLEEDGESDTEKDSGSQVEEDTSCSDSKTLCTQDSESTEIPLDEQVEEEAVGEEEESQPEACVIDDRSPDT

As for `Fc1ccccc1Cn1nc(-c2ccco2)cc1-c1ccccc1`, the half-life (in general, the time in which the quantity being followed falls by half) in data set [1] is 79.2 min. In data set [2], the Vz turned out to be 225 mL. Further, in data set [3], the clearance (in general, the volume of plasma or blood freed of the substance per unit of time) stood at 1.97 mL/min. In addition, the inhibition (usually the change of the read-out against control, counted positive when it falls) in [4] was 83%; in [10], 85%. Besides, the inhibition at 10 µM in the data set on Neutrophil [5] came out at 66.5%; with Neutrophil [9], 37%. Besides, the inhibition result with Neutrophil [6] is “Active”. Also, the IC50 (commonly the point on the concentration scale where inhibition reaches its midpoint) in the data set with Neutrophil [7] is 9.06 nM; with Neutrophil [8] it was more than 10 µM. For the same molecule, the AUC(0-inf) – broadly, total exposure, with the tail of the curve extrapolated – in data set [11] was 962 ng·h/mL.
Consider `Fc1ccccc1Cn1nc(-c2cccs2)cc1-c1ccccc1`, for which the half-life in data set [1] was 61.9 min. Besides, the Vz in [2] turned out to be 165 mL. This molecule also had a clearance in [3] of 1.85 mL/min. In addition, the inhibition at 10 µM with Neutrophil [5] was found to be 72.2%; in the data set with Neutrophil [9], 38.2%. Moreover, the inhibition result with Neutrophil [6] was “Active”. Further, the IC50 was 13.3 nM in the data set on Neutrophil [7] and more than 10 µM in the data set with Neutrophil [8]. The molecule also showed an area under the curve AUC(0-inf) in [11] of 900 ng·h/mL.
`OCc1ccc(-c2nn(Cc3ccccc3)c3ccccc23)o1`: in data set [12], the inhibition turned out to be 60%. Moreover, the inhibition at 10 µM is 12.9% in the data set on Neutrophil [5] and -2.64% with Neutrophil [9]. Moreover, the figures for the IC50 in the data set with Neutrophil [7] and in the data set on Neutrophil [8] were more than 10000 nM and more than 10 µM, respectively.
In the case of `O=C(O)c1ccc(-c2nn(Cc3ccccc3)c3ccccc23)o1`, the inhibition at 10 µM worked out at 43.4% with Neutrophil [5] and 16.8% with Neutrophil [9]. Moreover, the IC50 in the data set on Neutrophil [7] was more than 10000 nM; with Neutrophil [8], more than 10 µM.
In the same order, the values of `O=Cc1ccc(-c2nn(CC3CCCCC3)c3ccccc23)o1` are 63.4%, 102%, 170 nM and 1.18 µM.
In the case of `c1ccc(-c2cc(-c3ccco3)nn2CC2CCCCC2)cc1`, the inhibition at 10 µM in the data set on Neutrophil [5] came to 99.3%; with Neutrophil [9], 109%. For the same molecule, the 50% inhibitory concentration (IC50) in the data set on Neutrophil [7] came out at 200 nM; in the data set with Neutrophil [8], 2.42 µM.
Consider `O=Cc1ccc(-c2nn(C(=O)c3ccccc3)c3ccccc23)o1`, for which the inhibition at 10 µM is 10.1% in the data set on Neutrophil [5] and 18.1% in the data set with Neutrophil [9]. The concentration for half-maximal inhibition (IC50) with Neutrophil [7] was more than 10000 nM; with Neutrophil [8], more than 10 µM.
As for `O=Cc1ccc(-c2nn(C(=O)c3ccccc3F)c3ccccc23)o1`, the figures for the inhibition at 10 µM in the data set with Neutrophil [5] and in the data set with Neutrophil [9] were 31.8% and 52.2%, respectively. Moreover, the IC50 in the data set on Neutrophil [7] is more than 10000 nM; with Neutrophil [8], more than 10 µM.
The corresponding values for `O=Cc1ccc(-c2nn(Cc3ccccc3F)c3ccccc23)o1` are 78.2%, 84.7%, 710 nM and 5.27 µM.
Turning to `O=Cc1ccc(-c2cc(-c3ccccc3)n(Cc3ccccc3)n2)o1`, the inhibition at 10 µM is 80.8% with Neutrophil [5] and 96.1% with Neutrophil [9]. The values for the 50% inhibitory concentration (IC50) in the data set on Neutrophil [7] and in the data set with Neutrophil [8] were 1550 nM and 1.84 µM, respectively.
The corresponding values for `Fc1ccccc1Cn1nc(-c2ccccc2)cc1-c1ccccc1` are 61.8%, 35%, 4690 nM and more than 10 µM.
